Results on 26 compounds are retold here after patent US20240246979A1, “cGAS INHIBITORS” (Eli Lilly and Company, priority 2022, published 2024).

Assay [1] concerns the target T1, cGAS (Homo sapiens, UniProt Q8N884). In words: Cellular assay to measure cGAS activity (IFNb AlphaLISA in THP1 cells stimulated by RDG-Adenovirus-GFP). Also noted: host or cells: THP1 cells differentiated with PMA and stimulated with RDG-Adenovirus-GFP. It is filed as cell-based. Conditions: PMA-differentiated THP1 cells, RDG-Adenovirus-GFP at 1000 MOI; inhibition of IFNb production as marker for cGAS activity. How it is done: Cellular assay to measure cGAS activity: Use THP1 cell line from ATCC to determine inhibition of cGAS activity by test compounds in human cells. Plate cells on 96-well plates at 0.2×10^6/well and differentiate with phorbol myristate acetate (PMA) at 37° C./5% CO2. After 24 hours, replace PMA containing media with media lacking PMA and further incubate overnight. Stimulate cells were then by RDG-Adenovirus-GFP (Vector Biolabs #1768) at 1000 MOI for 4 hours prior to the addition of test compounds. After overnight incubation, transfer 10 μL of the media from each well to a new plate for IFNb analysis as a marker for cGAS activity. Measure quantification of IFNb with an IFNb AlphaLISA Detection kit (Perkin Elmer AL3133F) by mixing the acceptor beads with the cell supernatant followed by the addition of the biotinylated antibody and donor beads. Measure the relative fluorescence signal produced from the interaction of the donor and acceptor beads by a PHERAStar AlphaLISA protocol and evaluate the inhibitory effect of a compound by plotting specific inhibition of IFNb production against log concentration of the test compound. Calculate IC50 values using a 4-parameter non-linear logistic equation (y=(S0+((SInf−S0)/(1+((qAC50/x)^nHill))))).

The target in assay [2] is T1, cGAS. In words: In vitro inhibition assay of cGAS activity (cGAMP production, RapidFire mass spectrometry). Also noted: Insert cDNA encoding full-length of human cGAS; His6; made in house; host or cells: E. coli BL21(DE3). Conditions: 10 nM recombinant human cGAS, 60 nM 75-bp dsDNA, 50 μM ATP, 50 μM GTP, 3 hrs. It is filed as biochemical. How it is done:
Expression and Purification of Recombinant cGAS Protein: Insert cDNA encoding full-length of human cGAS into a modified bacterial expression vector containing an in-frame His6-tag. Induce the E. coli strain BL21(DE3) harboring the plasmid with 1 mM IPTG (Isopropyl β-D-1-thiogalactopyranoside) at 18° C. overnight. Purify the His6-tagged cGAS protein over HISpur Ni-NTA resin in the presence of benzonase and RNase followed by Superdex 200 size exclusion chromatography with storage buffer (50 mM Tris-HCl pH 7.5, 300 mM NaCl, 1 mM DTT, 10% glycerol).
In vitro inhibition assay of cGAS activity: Add a 5 μL mixture containing 10 mM Tris-Cl pH 7.5, 50 mM NaCl, 5 mM MgCl2, 1 mM DTT, 0.01% Triton X-100, 60 nM 75-bp dsDNA, 50 μM ATP, 50 μM GTP, 10 nM of recombinant human cGAS, and serial dilutions of a test compound in DMSO to a 384-well plate and incubate at ambient temperature for 3 hrs. Quench the reaction by the addition of 100 μL of stop solution containing 0.1% formic acid and 0.1 μM internal standard (3′3′-difluoro cGAMP). Measure the amount of cGAMP produced by RapidFire 365 mass spectrometry and evaluate inhibitory effect of a compound by plotting percent specific inhibition of cGAMP production against log concentration of the test compound. Calculate IC50 values using a 4-parameter non-linear logistic equation (y=(S0+((Sinf−S0)/(1+((qAC50/x)^nHill))))).

T1 sequence (Q8N884 whole entry): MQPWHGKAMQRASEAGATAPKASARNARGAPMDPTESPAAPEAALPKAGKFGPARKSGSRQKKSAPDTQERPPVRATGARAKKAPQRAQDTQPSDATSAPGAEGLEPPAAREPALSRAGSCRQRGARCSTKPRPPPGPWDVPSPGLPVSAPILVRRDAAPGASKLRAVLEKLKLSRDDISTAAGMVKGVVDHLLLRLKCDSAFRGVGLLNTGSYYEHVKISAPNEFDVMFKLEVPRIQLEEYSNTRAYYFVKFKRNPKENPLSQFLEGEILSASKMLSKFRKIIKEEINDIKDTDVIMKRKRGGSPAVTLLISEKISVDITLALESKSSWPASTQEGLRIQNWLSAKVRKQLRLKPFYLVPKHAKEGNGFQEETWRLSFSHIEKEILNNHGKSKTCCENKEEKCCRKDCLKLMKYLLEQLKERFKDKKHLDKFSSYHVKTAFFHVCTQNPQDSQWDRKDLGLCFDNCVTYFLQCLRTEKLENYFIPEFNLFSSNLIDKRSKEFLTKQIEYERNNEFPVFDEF

With `CC(O)COc1cc(Cl)c(Cl)c2[nH]c3c(c12)CC(=O)NCC3` (stereo not shown) [Example 87, 7,8-Dichloro-10-(2-hydroxypropoxy)-3,4,5,6-tetrahydroazepino[4,5-b]indol-2(1H)-one], the IC50 on cGAS [1] is 5970 nM; at cGAS [2], 36 nM.
Take `C[C@@H]1C(=O)NCCc2[nH]c3c(Cl)c(Cl)cc(OCC(F)(F)CO)c3c21` (single isomer, unassigned) [Example 73]: the IC50 against cGAS [1] worked out at 755 nM; on cGAS [2], 11.2 nM.
For `C[C@@H]1C(=O)NCCc2[nH]c3c(Cl)c(Cl)cc(OCC(N)=O)c3c21` (single isomer, unassigned) [Example 17A], the values for the IC50 at cGAS [1] and at cGAS [2] were 856 nM and 22.4 nM, respectively.
As to `Cn1c2c(c3c(CC#N)cc(Cl)c(Cl)c31)CC(=O)NC[C@H]2CC(C)(C)O` (single isomer, unassigned) [Example 130], the IC50 against cGAS [1] was 205 nM; on cGAS [2] it was 12.3 nM.
As for `C[C@@H]1CNC(=O)Cc2c1[nH]c1c(Cl)c(Cl)cc(OCC#N)c21` (single isomer, unassigned) [Example 149], the concentration for half-maximal inhibition (IC50) against cGAS [1] was 3080 nM; at cGAS [2], 1560 nM.
With `COCC[C@H]1CNC(=O)[C@H](C)c2c1[nH]c1c(Cl)c(Cl)cc(NCCO)c21` (single isomer, unassigned) [Example 171], the IC50 at cGAS [1] was 483 nM; on cGAS [2] it was 7.84 nM.
On the same counts, the results for `CC(O)CC1CNC(=O)Cc2c1[nH]c1c(Cl)c(Cl)cc(-c3cnn(C)n3)c21` (stereo not shown) [Example 119, 7,8-Dichloro-5-(2-hydroxypropyl)-10-(2-methyl-2H-1,2,3-triazol-4-yl)-3,4,5,6-tetrahydroazepino[4,5-b]indol-2(1H)-one] are 487 nM and 23.2 nM.
For `CC1C(=O)NCCc2[nH]c3c(Cl)c(Cl)cc(NCc4cocn4)c3c21` (stereo in doubt) [Example 59, (S′)-7,8-Dichloro-1-methyl-10-((oxazol-4-ylmethyl)amino)-3,4,5,6-tetrahydroazepino[4,5-b]indol-2(1H)-one Or (R)-7,8-Dichloro-1-methyl-10-((oxazol-4-ylmethyl)amino)-3,4,5,6-tetrahydroazepino[4,5-b]indol-2(1H)-one], in that order: over 10000 nM and 2000 nM.
With `C[C@H](O)C(=O)Nc1cc(Cl)c(Cl)c2[nH]c3c(c12)[C@@H](C)C(=O)NCC3` (single isomer, unassigned) [Example 43], the IC50 amounted to 498 nM against cGAS [1] and 14.9 nM at cGAS [2].
Regarding `C[C@H](O)C(=O)Nc1cc(Cl)c(Cl)c2c1c1c(n2C)CCNC(=O)[C@H]1C` (single isomer, unassigned) [Example 95], the IC50 on cGAS [1] is at least 10000 nM; at cGAS [2] it was 7580 nM.
For `C[C@@H](O)CNc1cc(Cl)c(Cl)c2c1c1c(n2C)CCNC(=O)[C@@H]1C` (single isomer, unassigned) [Example 98], the values for the IC50 against cGAS [1] and at cGAS [2] were 2180 nM and 42.4 nM, respectively.
For the compound `CC1C(=O)NCCc2c1c1c(NC(=O)CO)cc(Cl)c(Cl)c1n2C(F)F` (stereo not shown) [Example 144, N-(7,8-Dichloro-6-(difluoromethyl)-1-methyl-2-oxo-1,2,3,4,5,6-hexahydroazepino[4,5-b]indol-10-yl)-2-hydroxyacetamide], the IC50 on cGAS [1] is 649 nM; at cGAS [2] it was 22.5 nM.
As to `Cn1c2c(c3c(OCC#N)cc(Cl)c(Cl)c31)CC(=O)NC[C@H]2CCO` (single isomer, unassigned) [Example 125], the results for the concentration for half-maximal inhibition (IC50) against cGAS [1] and on cGAS [2] were 272 nM and 18 nM, respectively.
As for `C[C@H]1C(=O)NCCc2[nH]c3c(Cl)c(Cl)cc(-c4cnn(C)n4)c3c21` [Example 38, (R)-7,8-Dichloro-1-methyl-10-(2-methyl-2H-1,2,3-triazol-4-yl)-3,4,5,6-tetrahydroazepino[4,5-b]indol-2(1H)-one Or (S′)-7,8-Dichloro-1-methyl-10-(2-methyl-2H-1,2,3-triazol-4-yl)-3,4,5,6-tetrahydroazepino[4,5-b]indol-2(1H)-one], the values for the IC50 on cGAS [1] and at cGAS [2] were 9800 nM and 1650 nM, respectively.
For `Cn1ncc(-c2cc(Cl)c(Cl)c3[nH]c4c(c23)CC(=O)NC[C@H]4CCO)n1` (single isomer, unassigned) [Example 8A], in that order: 168 nM and 15.6 nM.
For `COCCNc1cc(Cl)c(Cl)c2[nH]c3c(c12)[C@@H](C)C(=O)NCC3` (single isomer, unassigned) [Example 47], in that order: 596 nM and 20.1 nM.
As to `COCCNc1cc(Cl)c(Cl)c2c1c1c(n2C(F)F)CCNC(=O)C1C` (stereo not shown) [Example 141, 7,8-Dichloro-6-(difluoromethyl)-10-((2-methoxyethyl)amino)-1-methyl-3,4,5,6-tetrahydroazepino[4,5-b]indol-2(1H)-one], the IC50 is 2440 nM against cGAS [1] and 35.4 nM at cGAS [2].
For `Cn1c2c(c3c(CC#N)cc(Cl)c(Cl)c31)CC(=O)NC[C@H]2CCO` (single isomer, unassigned) [Example 123], in that order: 181 nM and 14.1 nM.
Consider `C[C@@H]1CNC(=O)Cc2c1[nH]c1c(Cl)c(Cl)cc(-c3cnn(C)n3)c21` (single isomer, unassigned) [Example 146], for which the IC50 at cGAS [1] amounted to 300 nM; on cGAS [2], 27.2 nM.
For the compound `Cn1ncc(-c2cc(Cl)c(Cl)c3[nH]c4c(c23)CC(=O)NCC4CCO)n1` (racemic) [Example 8, 7,8-Dichloro-5-(2-hydroxyethyl)-10-(2-methyl-2H-1,2,3-triazol-4-yl)-3,4,5,6-tetrahydroazepino[4,5-b]indol-2(1H)-one], the results for the IC50 against cGAS [1] and at cGAS [2] were 420 nM and 19 nM, respectively.
For the compound `CNC(=O)CC1CNC(=O)Cc2c1[nH]c1c(Cl)c(Cl)cc(-c3cnn(C)n3)c21` (stereo not shown) [Example 6, 2-(7,8-Dichloro-10-(2-methyl-2H-1,2,3-triazol-4-yl)-2-oxo-1,2,3,4,5,6-hexahydroazepino[4,5-b]indol-5-yl)-N-methylacetamide], the IC50 is over 10000 nM at cGAS [1] and 15.6 nM on cGAS [2].
For the compound `NC(=O)C(=O)Nc1cc(Cl)c(Cl)c2[nH]c3c(c12)CC(=O)NCC3` [Example 32, N^1-(7,8-Dichloro-2-oxo-1,2,3,4,5,6-hexahydroazepino[4,5-b]indol-10-yl)oxalamide], the IC50 was 1400 nM against cGAS [1] and 33.3 nM on cGAS [2].
For `CCOC(=O)CC1CNC(=O)Cc2c1[nH]c1c(Cl)c(Cl)cc(-c3cnn(C)n3)c21` (racemic) [Example 4, Ethyl 2-(7,8-dichloro-10-(2-methyl-2H-1,2,3-triazol-4-yl)-2-oxo-1,2,3,4,5,6-hexahydroazepino[4,5-b]indol-5-yl)acetate], the values for the concentration for half-maximal inhibition (IC50) against cGAS [1] and on cGAS [2] were 3570 nM and 26.2 nM, respectively.
Consider `COCCC1CNC(=O)Cc2c1[nH]c1c(Cl)c(Cl)cc(-c3cnn(C)n3)c21` (racemic) [Example 166, 7,8-Dichloro-5-(2-methoxyethyl)-10-(2-methyl-2H-1,2,3-triazol-4-yl)-3,4,5,6-tetrahydroazepino[4,5-b]indol-2(1H)-one], for which the IC50 amounted to 1020 nM against cGAS [1] and 20.7 nM at cGAS [2].
Consider `COC(=O)CC1CNC(=O)Cc2c1[nH]c1c(Cl)c(Cl)cc(CC#N)c21` (stereo not shown) [Example 176, Methyl 2-(7,8-dichloro-10-(cyanomethyl)-2-oxo-1,2,3,4,5,6-hexahydroazepino[4,5-b]indol-5-yl)acetate], for which the IC50 against cGAS [1] was 7110 nM; at cGAS [2], 38.9 nM.
On to `C[C@@H]1CNC(=O)[C@H](C)c2c1[nH]c1c(Cl)c(Cl)cc(NC(=O)CO)c21` (relative stereo) [Example 159, cis-N-(7,8-dichloro-1,5-dimethyl-2-oxo-1,2,3,4,5,6-hexahydroazepino[4,5-b]indol-10-yl)-2-hydroxyacetamide], for which the results for the half-inhibitory concentration (IC50) against cGAS [1] and on cGAS [2] were 1390 nM and 60.6 nM, respectively.
